Measurements: PubChem BioAssay (NCI)
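Dose response: 5 concentrations. Exposure: 48 h. Format: 96-well plates. Endpoint: linear interpolation; highest concentration if not reached. GI50 is the concentration that inhibits growth by half. TGI: total growth inhibition.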

Key:
Test in all cases: DTP human tumour cell line panel, 48 h
786-0 renal = system: 786-0 renal
A498 renal = system: A498 renal
A549 NSCLC = system: A549 NSCLC
ACHN renal = system: ACHN renal
BT-549 breast = system: BT-549 breast
CAKI-1 renal = system: CAKI-1 renal
CCRF-CEM leukemia = system: CCRF-CEM leukemia
COLO 205 colon = system: COLO 205 colon
DU-145 prostate = system: DU-145 prostate
EKVX NSCLC = system: EKVX NSCLC
HCC-2998 colon = system: HCC-2998 colon
HCT-116 colon = system: HCT-116 colon
HCT-15 colon = system: HCT-15 colon
HL-60(TB) leukemia = system: HL-60(TB) leukemia
HOP-62 NSCLC = system: HOP-62 NSCLC
HOP-92 NSCLC = system: HOP-92 NSCLC
HS 578T breast = system: HS 578T breast
HT29 colon = system: HT29 colon
IGROV1 ovarian = system: IGROV1 ovarian
K-562 leukemia = system: K-562 leukemia
KM12 colon = system: KM12 colon
LOX IMVI melanoma = system: LOX IMVI melanoma
M14 melanoma = system: M14 melanoma
MALME-3M melanoma = system: MALME-3M melanoma
MCF7 breast = system: MCF7 breast
MDA-MB-231 breast = system: MDA-MB-231 breast
MDA-MB-435 = system: MDA-MB-435
MDA-N = system: MDA-N
MOLT-4 leukemia = system: MOLT-4 leukemia
NCI-H226 lung = system: NCI-H226 lung
NCI-H23 lung = system: NCI-H23 lung
NCI-H460 lung = system: NCI-H460 lung
NCI-H522 lung = system: NCI-H522 lung
NCI/ADR-RES ovarian = system: NCI/ADR-RES ovarian
OVCAR-3 ovarian = system: OVCAR-3 ovarian
OVCAR-4 ovarian = system: OVCAR-4 ovarian
OVCAR-5 ovarian = system: OVCAR-5 ovarian
OVCAR-8 ovarian = system: OVCAR-8 ovarian
PC-3 prostate = system: PC-3 prostate
RPMI-8226 leukemia = system: RPMI-8226 leukemia
SF-268 CNS = system: SF-268 CNS
SF-295 CNS = system: SF-295 CNS
SF-539 CNS = system: SF-539 CNS
SK-MEL-2 melanoma = system: SK-MEL-2 melanoma
SK-MEL-28 melanoma = system: SK-MEL-28 melanoma
SK-MEL-5 melanoma = system: SK-MEL-5 melanoma
SK-OV-3 ovarian = system: SK-OV-3 ovarian
SN12C renal = system: SN12C renal
SNB-19 CNS = system: SNB-19 CNS
SNB-75 CNS = system: SNB-75 CNS
SW-620 colon = system: SW-620 colon
T-47D breast = system: T-47D breast
TK-10 renal = system: TK-10 renal
U251 CNS = system: U251 CNS
UACC-257 melanoma = system: UACC-257 melanoma
UACC-62 melanoma = system: UACC-62 melanoma
UO-31 renal = system: UO-31 renal
RXF 393 renal = system: RXF 393 renal

In the case of `Fc1ccc(C(OCCN2CC3CCC(C2)N3CCCc2ccccc2)c2ccc(F)cc2)cc1`, the TGI (786-0 renal) is reported as 13.4 µM, the TGI (A498 renal) is reported as 17.7 µM and the TGI (A549 NSCLC) is reported as 21.5 µM. It also gave a TGI (ACHN renal) of 22.4 µM, a TGI (BT-549 breast) of 24.8 µM and a TGI (CAKI-1 renal) of 19.1 µM. For the same molecule, the TGI (CCRF-CEM leukemia) was 15.6 µM, the TGI (COLO 205 colon) was 2.74 µM and the TGI (DU-145 prostate) was 22.6 µM. For the same molecule, the TGI (EKVX NSCLC) was 16.4 µM, the TGI (HCC-2998 colon) was 8.06 µM and the TGI (HCT-116 colon) was 11.3 µM. It also gave a TGI (HCT-15 colon) of 12.2 µM, a TGI (HL-60(TB) leukemia) of 14.1 µM and a TGI (HOP-62 NSCLC) of 21.3 µM. For the same molecule, the TGI (HOP-92 NSCLC) was 21.1 µM, the TGI (HS 578T breast) was 13.6 µM and the TGI (HT29 colon) was 13.7 µM. The TGI (IGROV1 ovarian) was 21.1 µM, the TGI (K-562 leukemia) was 4.99 µM and the TGI (KM12 colon) was 12.2 µM. It also gave a TGI (LOX IMVI melanoma) of 13 µM, a TGI (M14 melanoma) of 6.26 µM and a TGI (MALME-3M melanoma) of 11.2 µM. For the same molecule, the TGI (MCF7 breast) was 10.7 µM, the TGI (MDA-MB-231 breast) was 10.2 µM and the TGI (MDA-MB-435) was 4.68 µM. It also gave a TGI (MDA-N) of 11.8 µM, a TGI (MOLT-4 leukemia) of 9.01 µM and a TGI (NCI-H226 lung) of 13.1 µM. The TGI (NCI-H23 lung) was 15.3 µM, the TGI (NCI-H460 lung) was 9.75 µM and the TGI (NCI-H522 lung) was 5.15 µM. It also gave a TGI (NCI/ADR-RES ovarian) of 15.2 µM, a TGI (OVCAR-3 ovarian) of 21.8 µM and a TGI (OVCAR-4 ovarian) of 16.4 µM. It also gave a TGI (OVCAR-5 ovarian) of 23.3 µM, a TGI (OVCAR-8 ovarian) of 5.39 µM and a TGI (PC-3 prostate) of 10.4 µM. The TGI (RPMI-8226 leukemia) was 4.8 µM, the TGI (SF-268 CNS) was 15.1 µM and the TGI (SF-295 CNS) was 11.8 µM. The TGI (SF-539 CNS) was 3.63 µM, the TGI (SK-MEL-2 melanoma) was 12 µM and the TGI (SK-MEL-28 melanoma) was 22.2 µM. It also gave a TGI (SK-MEL-5 melanoma) of 3.4 µM, a TGI (SK-OV-3 ovarian) of 23.3 µM and a TGI (SN12C renal) of 13.6 µM. The TGI (SNB-19 CNS) was 22.1 µM, the TGI (SNB-75 CNS) was 17 µM and the TGI (SW-620 colon) was 17.3 µM. The TGI (T-47D breast) was 6.28 µM, the TGI (TK-10 renal) was 24 µM and the TGI (U251 CNS) was 16.1 µM. The TGI (UACC-257 melanoma) was 11.9 µM, the TGI (UACC-62 melanoma) was 21.3 µM and the TGI (UO-31 renal) was 19.4 µM.

For `COc1cccc(-c2cc3c4c(nc5ccccc53)C(=O)c3cccnc3-c4n2)c1`, the GI50 (786-0 renal) was 2.03 µM, the TGI (786-0 renal) was 4.48 µM and the GI50 (A498 renal) was 14.1 µM. It also gave a TGI (A498 renal) of 29.5 µM, a GI50 (A549 NSCLC) of 1.44 µM and a TGI (A549 NSCLC) of 3.82 µM. For the same molecule, the GI50 (ACHN renal) was 2.21 µM, the TGI (ACHN renal) was 9.82 µM and the GI50 (BT-549 breast) was 10.6 µM. For the same molecule, the TGI (BT-549 breast) was 28.1 µM, the GI50 (CAKI-1 renal) was 3.36 µM and the TGI (CAKI-1 renal) was 11.5 µM. The GI50 (COLO 205 colon) was 5.56 µM, the TGI (COLO 205 colon) was 10.9 µM and the GI50 (DU-145 prostate) was 1.67 µM. For the same molecule, the TGI (DU-145 prostate) was 3.13 µM, the GI50 (EKVX NSCLC) was 3.98 µM and the TGI (EKVX NSCLC) was 14.2 µM. It also gave a GI50 (HCC-2998 colon) of 2.2 µM, a TGI (HCC-2998 colon) of 4.61 µM and a GI50 (HCT-116 colon) of 1.3 µM. It also gave a TGI (HCT-116 colon) of 5.75 µM, a GI50 (HCT-15 colon) of 1.52 µM and a TGI (HCT-15 colon) of 4.44 µM. The GI50 (HOP-62 NSCLC) was 4.2 µM, the TGI (HOP-62 NSCLC) was 12.3 µM and the GI50 (HOP-92 NSCLC) was 4.3 µM. The TGI (HOP-92 NSCLC) was 19.8 µM, the GI50 (HS 578T breast) was 3.18 µM and the TGI (HS 578T breast) was 11.2 µM. The GI50 (HT29 colon) was 2.49 µM, the TGI (HT29 colon) was 6.19 µM and the GI50 (IGROV1 ovarian) was 3.37 µM. The TGI (IGROV1 ovarian) was 14.4 µM, the GI50 (K-562 leukemia) was 1.82 µM and the TGI (K-562 leukemia) was greater than 100 µM. For the same molecule, the GI50 (KM12 colon) was 1.54 µM, the TGI (KM12 colon) was 3.75 µM and the GI50 (LOX IMVI melanoma) was 2.31 µM. The TGI (LOX IMVI melanoma) was greater than 100 µM, the GI50 (M14 melanoma) was 0.863 µM and the TGI (M14 melanoma) was 2.36 µM. For the same molecule, the GI50 (MALME-3M melanoma) was 0.822 µM, the TGI (MALME-3M melanoma) was 3.32 µM and the GI50 (MCF7 breast) was 0.418 µM. The TGI (MCF7 breast) was greater than 100 µM, the GI50 (MDA-MB-231 breast) was 4.61 µM and the TGI (MDA-MB-231 breast) was greater than 37.8 µM. It also gave a GI50 (MDA-MB-435) of 1.18 µM, a TGI (MDA-MB-435) of 2.57 µM and a GI50 (MDA-N) of 1.74 µM. For the same molecule, the TGI (MDA-N) was 4.01 µM, the GI50 (MOLT-4 leukemia) was 0.788 µM and the TGI (MOLT-4 leukemia) was greater than 100 µM. It also gave a GI50 (NCI-H226 lung) of 6.27 µM, a TGI (NCI-H226 lung) of 22.3 µM and a GI50 (NCI-H23 lung) of 1.47 µM. It also gave a TGI (NCI-H23 lung) of 4.28 µM, a GI50 (NCI-H460 lung) of 1.07 µM and a GI50 (NCI-H522 lung) of 0.429 µM. The TGI (NCI-H522 lung) was 2.01 µM, the GI50 (NCI/ADR-RES ovarian) was 2.22 µM and the TGI (NCI/ADR-RES ovarian) was 7.92 µM. The GI50 (OVCAR-3 ovarian) was 0.3 µM, the GI50 (OVCAR-4 ovarian) was 1.94 µM and the TGI (OVCAR-4 ovarian) was 8.5 µM. It also gave a GI50 (OVCAR-5 ovarian) of 3.05 µM, a TGI (OVCAR-5 ovarian) of 8.92 µM and a GI50 (OVCAR-8 ovarian) of 1.69 µM. It also gave a TGI (OVCAR-8 ovarian) of 7.08 µM, a GI50 (PC-3 prostate) of 2.73 µM and a TGI (PC-3 prostate) of 12.8 µM. The GI50 (RPMI-8226 leukemia) was 1.2 µM, the TGI (RPMI-8226 leukemia) was 4.22 µM and the GI50 (RXF 393 renal) was 2.47 µM. It also gave a TGI (RXF 393 renal) of 9.91 µM, a GI50 (SF-268 CNS) of 3.27 µM and a TGI (SF-268 CNS) of 14.9 µM. The GI50 (SF-295 CNS) was 2.34 µM, the TGI (SF-295 CNS) was 6.44 µM and the GI50 (SF-539 CNS) was 3.28 µM. It also gave a TGI (SF-539 CNS) of 10.3 µM, a GI50 (SK-MEL-2 melanoma) of 1.18 µM and a TGI (SK-MEL-2 melanoma) of 4.16 µM. For the same molecule, the GI50 (SK-MEL-28 melanoma) was 10.2 µM, the TGI (SK-MEL-28 melanoma) was 22.3 µM and the GI50 (SK-MEL-5 melanoma) was 0.578 µM. It also gave a TGI (SK-MEL-5 melanoma) of 1.76 µM, a GI50 (SK-OV-3 ovarian) of 8.57 µM and a TGI (SK-OV-3 ovarian) of 25.7 µM. For the same molecule, the GI50 (SN12C renal) was 2.44 µM, the TGI (SN12C renal) was 6.54 µM and the GI50 (SNB-19 CNS) was 4.2 µM. For the same molecule, the TGI (SNB-19 CNS) was 11.2 µM, the GI50 (SNB-75 CNS) was 2.32 µM and the TGI (SNB-75 CNS) was 5.71 µM. The GI50 (SW-620 colon) was 1.32 µM, the TGI (SW-620 colon) was 3.88 µM and the GI50 (T-47D breast) was 2.26 µM. The TGI (T-47D breast) was 5.99 µM, the GI50 (TK-10 renal) was 5.03 µM and the TGI (TK-10 renal) was greater than 64.8 µM. The GI50 (U251 CNS) was 1.66 µM, the TGI (U251 CNS) was 7.13 µM and the GI50 (UACC-257 melanoma) was 1.06 µM. It also gave a TGI (UACC-257 melanoma) of 4.33 µM, a GI50 (UACC-62 melanoma) of 3.88 µM and a TGI (UACC-62 melanoma) of 10.5 µM. For the same molecule, the GI50 (UO-31 renal) was 2.02 µM and the TGI (UO-31 renal) was 8.45 µM.
